Laboratory results reported in US11872210B2, “Thiol isomerases inhibitors and use thereof” (WESTERN NEW ENGLAND UNIVERSITY, priority 2017, dated 2024).

Assays:
ERp57 = molecular target: T1, ERp57 (Homo sapiens, UniProt P30101); assay: Insulin-based turbidometric assay of thiol isomerase inhibitory activity (ERp57); format: biochemical; settings: insulin turbidity assay, 6 point dose curve
T1 construct: purchased AbCam (Cambridge Mass.)
T1 sequence (P30101 25-505): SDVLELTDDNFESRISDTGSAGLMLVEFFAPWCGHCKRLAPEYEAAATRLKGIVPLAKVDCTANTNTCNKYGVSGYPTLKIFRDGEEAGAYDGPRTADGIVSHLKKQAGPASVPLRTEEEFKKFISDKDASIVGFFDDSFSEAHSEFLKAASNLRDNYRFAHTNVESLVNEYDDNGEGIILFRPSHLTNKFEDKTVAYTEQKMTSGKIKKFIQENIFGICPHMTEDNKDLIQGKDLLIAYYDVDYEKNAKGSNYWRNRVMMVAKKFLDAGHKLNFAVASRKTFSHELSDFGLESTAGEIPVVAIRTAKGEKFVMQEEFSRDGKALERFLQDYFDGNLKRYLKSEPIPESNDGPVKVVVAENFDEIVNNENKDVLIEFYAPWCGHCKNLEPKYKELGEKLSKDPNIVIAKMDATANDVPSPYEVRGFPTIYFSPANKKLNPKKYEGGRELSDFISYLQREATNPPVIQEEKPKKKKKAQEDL

[1] = test system: EGFR activation and downstream signaling (STAT3 phosphorylation); assay: Western blot of EGFR signaling in HCT116 cells; format: cell-based, human; settings: 24 hours
Experimental: HCT116 (human colon cancer) cells were incubated with drug for 24 hours and total cellular extracts prepared. Protein levels were normalized, protein loaded on SDS-polyacrylamide gels and then electrophoresed before transferring to a PVDF membrane. The membranes were probed with primary antibodies of interest, followed by secondary antibodies conjugated with horseradish peroxidase.

MDA-MB-231 cells = assay: PrestoBlue cell proliferation assay, MDA-MB-231; format: cell-based
Experimental: (§1) Cells were plated at 6,000 cells/well in a 96-well plate and treated with the indicated concentration of zafirlukast 24 hours later. Cells were allowed to grow for an additional 24 hours before alterations in growth were measured by the PrestoBlue cell proliferation assay in triplicate. Fluorescence readings with an excitation at 570 nm and emission of 600 nm were collected and treated samples were converted to a percentage of the untreated controls. OVCar8 (human ovarian cancer cell line), HCT116 (human colon cancer), HeLa (cervical cancer cell line) and MDA-MB-231 (breast cancer cell line) cell lines were examined for their ability to inhibit cell proliferation. […] Table 1 illustrates the results of a cell proliferation assay testing zafirlukast against OVCar8 cells, HCT116 cells, HeLa cells and MDA-MB-231 cells.

[2] = test system: integrin αIIbβ3 on washed platelets; assay: Integrin activation (PAC-1 antibody binding) by flow cytometry; format: cell-based, human; settings: CRP-XL stimulated
Experimental: Human Platelet Preparation: 50 mL of blood was drawn from drug free, consenting individuals, into a syringe containing 5 mL sodium citrate (4% w/v) and 7.5 mL warmed ACD (85 mM sodium citrate, 71 mM citric acid and 110 mM glucose). Blood was centrifuged at 102 g for 20 minutes to obtain platelet-rich plasma (PRP), which was then decanted and 104 prostacyclin (PGI2 125 μg/mL, solubilized in ethanol) added. Platelets were pelleted by centrifugation at 1413 g for 10 minutes, platelet poor plasma was discarded and the pellet resuspended in 25 mL Tyrode's-HEPES buffer (134 mM NaCl, 2.9 mM KCl, 0.34 mM Na2HPO4, 12 mM NaHCO3, 20 mM HEPES, 1 mM MgCl2 and 5 mM glucose pH 7.3), 3 mL of ACD and 10 μL PGI2 were added and then following centrifugation at 1413 g for 10 minutes, the platelet pellet was re-suspended to the appropriate cell density using Tyrode's buffer. […]
Flow Cytometry: 5 μL platelets (2×10^8 cells/mL) was added to 42 μL HEPES-buffered saline with 1 mM Ca2+. […] Samples were then fixed with 450 μL of 0.2% (v/v) paraformaldehyde and analyzed on an accuri C6 flow cytometer (BD Biosciences, UK), with the threshold set to 20,000. Platelet populations were gated and 10,000 events recorded.
Washed platelets (2×10^8 cells/mL) were incubated with vehicle, zafirlukast (0.6-10 μM) or montelukast (0.6-10 μM) for 5 minutes. […] Data were analyzed using one-way ANOVA, n=3.

PDI = molecular target: T2, PDI (Homo sapiens, UniProt P07237); assay: Insulin-based turbidometric assay of thiol isomerase inhibitory activity (PDI); format: biochemical; settings: insulin turbidity assay, 6 point dose curve
T2 construct: purchased AbCam (Cambridge Mass.)
T2 sequence (P07237 18-508): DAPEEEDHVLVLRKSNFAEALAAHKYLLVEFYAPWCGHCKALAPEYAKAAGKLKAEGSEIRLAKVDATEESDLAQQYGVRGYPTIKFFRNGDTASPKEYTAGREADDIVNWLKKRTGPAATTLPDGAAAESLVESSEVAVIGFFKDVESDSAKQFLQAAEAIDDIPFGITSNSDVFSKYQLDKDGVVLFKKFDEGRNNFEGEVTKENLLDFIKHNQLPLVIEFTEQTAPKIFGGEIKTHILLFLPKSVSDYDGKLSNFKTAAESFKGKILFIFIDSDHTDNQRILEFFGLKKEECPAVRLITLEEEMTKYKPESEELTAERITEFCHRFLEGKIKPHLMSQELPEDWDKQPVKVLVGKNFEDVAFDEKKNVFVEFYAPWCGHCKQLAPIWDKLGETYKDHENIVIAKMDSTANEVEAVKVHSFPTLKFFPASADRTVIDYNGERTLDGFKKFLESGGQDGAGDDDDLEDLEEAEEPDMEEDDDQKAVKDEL
From the text: Recombinant thiol isomerases were purchased from AbCam (Cambridge Mass.), recombinant insulin (bovine), bacitracin, dithiothreitol (DTT) buffers and all other chemicals were purchased from Sigma Aldrich (St. Louis, Mo.; while 384 well clear bottom plates were purchased from Corning (Corning, N.Y.).
The catalytic reduction of insulin by thiol isomerases in the presence of DTT results in aggregation of insulin chains. The turbidity of insulin aggregation can be monitored spectrophotometrically at an optical density (OD) at 650 nm. This approach has been used by multiple groups to identify thiol isomerase inhibitors in either a kinetic or endpoint fashion. A final concentration of either 10 μg/mL PDI, 30 μg/mL ERp5, 10 μg/mL ERp72 or 10 μg/mL thioredoxin, 125 μM insulin and 2 mM ethylenediaminetetraacetic acid (EDTA) in 30 μL of 100 mM potassium phosphate buffer was added to each experimental well plate, while negative control wells lacked any thiol isomerase. Lead compounds were diluted in a 6 point dose curve and the turbidity of insulin aggregation was measured kinetically each minute for 75 minutes using a Spectramax M3 plate reader (Molecular Devices, Sunnyvale, Calif.) Specificity assay utilized the insulin turbidity assay as well.

HCT116 cells = assay: PrestoBlue cell proliferation assay, HCT116; format: cell-based, human; settings: HCT116, colon cancer, 24 hours treatment
Experimental: as §1

HeLa cells = assay: PrestoBlue cell proliferation assay, HeLa; format: cell-based
Experimental: as §1

## COc1cc(C(=O)NS(=O)(=O)c2ccccc2C)ccc1Cc1cn(C)c2ccc(NC(=O)OC3CCCC3)cc12 [zafirlukast, 4-(5-cyclopentyloxycarbonylamino-1-methylindol-3-ylmethyl)-3-methoxy-N-o-tolylsulfonylbenzamide]
ERp57
  inhibitory range on ERp57: 30 to 300 µM
[1]
  inhibition of EGFR activation and downstream signaling (STAT3 phosphorylation), in words: almost complete inhibition
MDA-MB-231 cells; Homo sapiens, MDA-MB-231, breast cancer, 24 hours treatment
  IC50: 100 µM
MDA-MB-231 cells; MDA-MB-231, compared with OVCar8 and HCT116
  sensitivity of cell proliferation (in words): less sensitive
[2]; 10 μM, vehicle 1623 Au
  cell-surface bound PAC-1 antibody (fluorescence): 748.5 Au
[2]; Homo sapiens, Platelet, PAC-1 binding
  inhibition at 10 µM: 54%
PDI
  inhibitory range on PDI: 30 to 300 µM
HCT116 cells
  IC50: 5 µM
HCT116 cells; Homo sapiens, HCT-116, 24 h
  IC50: 5 to 10 µM
HeLa cells; Homo sapiens, cervical cancer, 24 hours treatment
  IC50: 30 µM
HeLa cells; compared with OVCar8 and HCT116
  sensitivity of cell proliferation (in words): less sensitive
